Test results as given in the supplement of paper PMC11061612.

How the values were obtained:
AZD2811 = compound: CCN(CCO)CCCOc1ccc2c(Nc3cc(CC(=O)Nc4cccc(F)c4)[nH]n3)ncnc2c1 [AZD2811]; details: max 1 µM
Procedure, shortened: (§1)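 Cancer cell lines were seeded into 1536-well plates in 7.5 μl medium (DMEM/F12 or RPMI, 10% FBS), held 24 hours at 37°C and 5% CO2, and dosed for 72 hours with final DMSO typically 0.2%. Luminescence from CellTiter-Glo 2.0, scaled between blank-well and DMSO-well means, served as viability. The single-agent IC50 was obtained from dose-response fits with a non-linear mixed effects model, each fit being a two-parameter logistic curve.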

Palbociclib = compound: CC(=O)c1c(C)c2cnc(Nc3ccc(N4CCNCC4)cn3)nc2n(C2CCCC2)c1=O [Palbociclib]; details: max 10 µM
Procedure, shortened: as §1

Crizotinib = compound: C[C@@H](Oc1cc(-c2cnn(C3CCNCC3)c2)cnc1N)c1c(Cl)ccc(F)c1Cl [Crizotinib]; details: max 10 µM
Procedure, shortened: as §1

Gefitinib = compound: COc1cc2ncnc(Nc3ccc(F)c(Cl)c3)c2cc1OCCCN1CCOCC1 [Gefitinib]; details: max 10 µM
Procedure, shortened: as §1

Savolitinib = compound: C[C@@H](c1ccc2nccn2c1)n1nnc2ncc(-c3cnn(C)c3)nc21 [Savolitinib]; details: max 1 µM
Procedure, shortened: as §1

Venetoclax = compound: CC1(C)CCC(CN2CCN(c3ccc(C(=O)NS(=O)(=O)c4ccc(NCC5CCOCC5)c([N+](=O)[O-])c4)c(Oc4cnc5[nH]ccc5c4)c3)CC2)=C(c2ccc(Cl)cc2)C1 [Venetoclax]; details: max 1 µM
Procedure, shortened: as §1

Paclitaxel = compound: CC(=O)O[C@H]1C(=O)[C@@]2(C)[C@H]([C@H](OC(=O)c3ccccc3)[C@]3(O)C[C@H](OC(=O)[C@H](O)[C@@H](NC(=O)c4ccccc4)c4ccccc4)C(C)=C1C3(C)C)[C@]1(OC(C)=O)CO[C@@H]1C[C@@H]2O [Paclitaxel]; details: max 3 µM
Procedure, shortened: as §1

AZD1775 = compound: C=CCn1c(=O)c2cnc(Nc3ccc(N4CCN(C)CC4)cc3)nc2n1-c1cccc(C(C)(C)O)n1 [AZD1775]; details: max 3 µM
Procedure, shortened: as §1

AZD1390 = compound: CC(C)n1c(=O)n(C)c2cnc3cc(F)c(-c4ccc(OCCCN5CCCCC5)nc4)cc3c21 [AZD1390]; details: max 0.3 µM
Procedure, shortened: as §1

AZD6738 = compound: C[C@@H]1COCCN1C2=NC(=NC(=C2)C3(CC3)[S@](=N)(=O)C)C4=C5C=CNC5=NC=C4 [AZD6738]; details: max 10 µM
Procedure, shortened: as §1

Taselisib = compound: Cc1nc(-c2cn3c(n2)-c2ccc(-c4cnn(C(C)(C)C(N)=O)c4)cc2OCC3)n(C(C)C)n1 [Taselisib]; details: max 10 µM
Procedure, shortened: as §1

AZD5991 = compound: Cc1c2c(nn1C)CSCc1cc(n(C)n1)CSc1cc(c3ccccc3c1)OCCCc1c(C(=O)O)n(C)c3c-2c(Cl)ccc13 [AZD5991]; details: max 1 µM
Procedure, shortened: as §1

AZD7648 = compound: Cc1cc2ncnn2cc1Nc1ncc2c(n1)n(C1CCOCC1)c(=O)n2C [AZD7648]; details: max 10 µM
Procedure, shortened: as §1

SN-38 = compound: CCc1c2c(nc3ccc(O)cc13)-c1cc3c(c(=O)n1C2)COC(=O)[C@]3(O)CC [SN-38]; details: max 0.3 µM
Procedure, shortened: as §1

MK-2206 = compound: NC1(c2ccc(-c3nc4ccn5c(=O)[nH]nc5c4cc3-c3ccccc3)cc2)CCC1 [MK-2206]; details: max 10 µM
Procedure, shortened: as §1

Olaparib = compound: O=C(c1cc(Cc2n[nH]c(=O)c3ccccc23)ccc1F)N1CCN(C(=O)C2CC2)CC1 [Olaparib]; details: max 10 µM
Procedure, shortened: as §1

Gemcitabine = compound: Nc1ccn([C@@H]2O[C@H](CO)[C@@H](O)C2(F)F)c(=O)n1 [Gemcitabine]; details: max 0.3 µM
Procedure, shortened: as §1

Trametinib = compound: CC(=O)Nc1cccc(-n2c(=O)n(C3CC3)c(=O)c3c(Nc4ccc(I)cc4F)n(C)c(=O)c(C)c32)c1 [Trametinib]; details: max 1 µM
Procedure, shortened: as §1

AZD4320 = compound: CN(CC[C@H](CSC1=CC=CC=C1)NC2=C(C=C(C=C2)S(=O)(=O)NC(=O)C3=CC=C(C=C3)N4CCC(CC4)[C@H](C5=CC=CC=C5C6=CC=C(C=C6)Cl)O)S(=O)(=O)C(F)(F)F)CCO [AZD4320]; details: max 1 µM
Procedure, shortened: as §1

Prexasertib = compound: COc1cccc(OCCCN)c1-c1cc(Nc2cnc(C#N)cn2)n[nH]1 [Prexasertib]; details: max 1 µM
Procedure, shortened: as §1

Selumetinib = compound: Cn1cnc2c(F)c(Nc3ccc(Br)cc3Cl)c(C(=O)NOCCO)cc21 [Selumetinib]; details: max 10 µM
Procedure, shortened: as §1

[1] = compound: O=C(Nc1ccc2[nH]nc(-c3ccncc3)c2c1)[C@@H]1CCN(CC(=O)N2CCN(c3ccc(-c4ncccn4)cc3)CC2)C1; details: max 5 µM
Procedure, shortened: as §1

Lapatinib = compound: CS(=O)(=O)CCNCc1ccc(-c2ccc3ncnc(Nc4ccc(OCc5cccc(F)c5)c(Cl)c4)c3c2)o1 [Lapatinib]; details: max 10 µM
Procedure, shortened: as §1

Alisertib = compound: COc1cc(Nc2ncc3c(n2)-c2ccc(Cl)cc2C(c2c(F)cccc2OC)=NC3)ccc1C(=O)O [Alisertib]; details: max 10 µM
Procedure, shortened: as §1

AZD0156 = compound: CN(C)CCCOc1ccc(-c2ccc3ncc4c(c3c2)n(C2CCOCC2)c(=O)n4C)cn1 [AZD0156]; details: max 3 µM
Procedure, shortened: as §1

AZD5363 = compound: C1CN(CCC1(C(=O)N[C@@H](CCO)C2=CC=C(C=C2)Cl)N)C3=NC=NC4=C3C=CN4 [AZD5363]; details: max 10 µM
Procedure, shortened: as §1

AZD5153 = compound: COc1nnc2ccc(N3CCC(c4ccc(OCCN5CCN(C)C(=O)[C@H]5C)cc4)CC3)nn12 [AZD5153]; details: max 1 µM
Procedure, shortened: as §1

Carboplatin = compound: C1CC(C1)(C(=O)[O-])C(=O)[O-].N.N.[Pt+2] [Carboplatin]; details: max 10 µM
Procedure, shortened: as §1

AZD8186 = compound: C[C@@H](Nc1cc(F)cc(F)c1)c1cc(C(=O)N(C)C)cc2c(=O)cc(N3CCOCC3)oc12 [AZD8186]; details: max 10 µM
Procedure, shortened: as §1

Etoposide = compound: COc1cc([C@@H]2c3cc4c(cc3[C@@H](O[C@@H]3O[C@@H]5CO[C@@H](C)O[C@H]5[C@H](O)[C@H]3O)[C@H]3COC(=O)[C@H]23)OCO4)cc(OC)c1O [Etoposide]; details: max 10 µM
Procedure, shortened: as §1

Doxorubicin = compound: COc1cccc2c1C(=O)c1c(O)c3c(c(O)c1C2=O)C[C@@](O)(C(=O)CO)C[C@@H]3O[C@H]1C[C@H](N)[C@H](O)[C@H](C)O1 [Doxorubicin]; details: max 1 µM
Procedure, shortened: as §1

SRA737 = compound: N#Cc1cnc(Nc2cc(NC[C@H]3CNCCO3)c(C(F)(F)F)cn2)cn1 [SRA737]; details: max 10 µM
Procedure, shortened: as §1

SG3199 = compound: CC1=CN2[C@@H](C1)C=NC3=CC(=C(C=C3C2=O)OC)OCCCCCOC4=C(C=C5C(=C4)N=C[C@@H]6CC(=CN6C5=O)C)OC [SG3199]; details: max 0.001 µM
Procedure, shortened: as §1

Dasatinib = compound: CC1=C(C(=CC=C1)Cl)NC(=O)C2=CN=C(S2)NC3=CC(=NC(=N3)C)N4CCN(CC4)CCO [Dasatinib]; details: max 2 µM
Procedure, shortened: as §1

5-Fluorouracil = compound: O=c1[nH]cc(F)c(=O)[nH]1 [5-Fluorouracil]; details: max 20 µM
Procedure, shortened: as §1

| Cell Line | IC50, cell viability 72 h (AZD2811) [nM] | IC50, cell viability 72 h (Palbociclib) [nM] | IC50, cell viability 72 h (Crizotinib) [µM] | IC50, cell viability 72 h (Gefitinib) [µM] | IC50, cell viability 72 h (Savolitinib) [nM] | IC50, cell viability 72 h (Venetoclax) [nM] | IC50, cell viability 72 h (Paclitaxel) [nM] | IC50, cell viability 72 h (AZD1775) [nM] | IC50, cell viability 72 h (AZD1390) [nM] | IC50, cell viability 72 h (AZD6738) [nM] | IC50, cell viability 72 h (Taselisib) [µM] | IC50, cell viability 72 h (AZD5991) [nM] | IC50, cell viability 72 h (AZD7648) [µM] | IC50, cell viability 72 h (SN-38) [nM] | IC50, cell viability 72 h (MK-2206) [nM] | IC50, cell viability 72 h (Olaparib) [µM] | IC50, cell viability 72 h (Gemcitabine) [nM] | IC50, cell viability 72 h (Trametinib) [nM] | IC50, cell viability 72 h (AZD4320) [nM] | IC50, cell viability 72 h (Prexasertib) [nM] | IC50, cell viability 72 h (Selumetinib) [µM] | IC50, cell viability 72 h [1] [nM] | IC50, cell viability 72 h (Lapatinib) [µM] | IC50, cell viability 72 h (Alisertib) [nM] | IC50, cell viability 72 h (AZD0156) [nM] | IC50, cell viability 72 h (AZD5363) [µM] | IC50, cell viability 72 h (AZD5153) [nM] | IC50, cell viability 72 h (Carboplatin) [µM] | IC50, cell viability 72 h (AZD8186) [µM] | IC50, cell viability 72 h (Etoposide) [nM] | IC50, cell viability 72 h (Doxorubicin) [nM] | IC50, cell viability 72 h (SRA737) [nM] | IC50, cell viability 72 h (SG3199) [nM] | IC50, cell viability 72 h (Dasatinib) [nM] | IC50, cell viability 72 h (5-Fluorouracil) [µM] |
| --- | --- | --- | --- | --- | --- | --- | --- | --- | --- | --- | --- | --- | --- | --- | --- | --- | --- | --- | --- | --- | --- | --- | --- | --- | --- | --- | --- | --- | --- | --- | --- | --- | --- | --- | --- |
| LOUCY (T-Lymphoblastic Leukemia) | 8.15 | > 10000 | 4 | > 10 | > 1000 | 31.7 | 13.5 | 257 | > 300 | 1310 | 3.53 | > 1000 | 7.43 | 172 | 1230 | > 10 | > 300 | > 1000 | 3.75 | 6.97 | > 10 | > 5000 | > 10 | 597 | > 3000 | 2.45 | 385 | > 10 | > 10 | 5000 | > 1000 | 2720 | > 1 | > 2000 | > 20 |
| KYM-1 (Rhabdomyosarcoma) | > 1000 | 522 | 2.94 | > 10 | > 1000 | > 1000 | 5.57 | 926 | > 300 | 2640 | > 10 | > 1000 | > 10 | 23.5 | > 10000 | > 10 | 5.74 | > 1000 | > 1000 | 33.8 | > 10 | > 5000 | > 10 | > 10000 | > 3000 | 7.86 | 54.8 | > 10 | > 10 | 668 | 485 | 846 | > 1 | > 2000 | 8.56 |
| SK-MM-2 (Plasma Cell Myeloma) | > 1000 | > 10000 | > 10 | > 10 | > 1000 | 2.5 | > 3000 | > 3000 | > 300 | > 10000 | > 10 | > 1000 | > 10 | 76.4 | > 10000 | > 10 | > 300 | > 1000 | 3.02 | 119 | > 10 | > 5000 | > 10 | 1810 | > 3000 | > 10 | 32.5 | > 10 | > 10 | > 10000 | > 1000 | > 10000 | > 1 | > 2000 | > 20 |
| OV-90 (Ovarian Carcinoma) | > 1000 | > 10000 | > 10 | > 10 | > 1000 | > 1000 | > 3000 | > 3000 | > 300 | > 10000 | > 10 | > 1000 | > 10 | 265 | > 10000 | > 10 | > 300 | 83.7 | > 1000 | 523 | 7.81 | 1880 | > 10 | > 10000 | > 3000 | > 10 | > 1000 | > 10 | > 10 | > 10000 | > 1000 | > 10000 | > 1 | > 2000 | > 20 |
| NKM-1 (Acute Myeloid Leukemia) | 502 | 1250 | 2.03 | > 10 | > 1000 | 102 | 3.66 | 455 | > 300 | 1860 | 0.201 | 49.3 | > 10 | 2.01 | 855 | 4.42 | 5.13 | 83.3 | 7.73 | 15 | 2.7 | 2000 | > 10 | 177 | > 3000 | 8.12 | 59.4 | > 10 | 1.27 | 496 | 24.1 | 2370 | > 1 | 147 | 3.19 |
